# Conditions: JIS Z 7260-107
smiles,measurement,value
O=C1NS(=O)(=O)c2ccccc21.[Ag] [saccharin silver],silver concentrations eluted out in 1-octanol or in water (hydrophilic and oleophilic property),"hydrophilic property and oleophilic property which are both superior to those of silver stearate, phthalazone silver or benzotriazole silver"

# Reference: patent US11172676B2, “Antibacterial resin composition” (TOYO SEIKAN GROUP HOLDINGS, LTD., priority 2011, dated 2021)
